US9322066B2, “Predictors for cancer treatment” (priority 2011, dated 2016)

Tested on: relapsed or refractory, rituximab-naive or -sensitive follicular B-cell NHL
Experiment: Time to next anti-lymphoma therapy, Vc-R vs rituximab study, by biomarker
Type: in vivo, human
Design: Median, Time to Next Anti-Lymphoma Therapy / Time to Next Anti-Lymphoma Therapy, Median: unit not given here
Description: Non-Hodgkin lymphoma (NHL) encompasses several unique malignant lymphoid disease entities that vary in clinical behavior, morphologic appearance, immunologic, and molecular phenotype. […] A randomized, open-label, active-controlled, multicenter, multinational, prospective study to compare the efficacy and safety of the combination of bortezomib and rituximab (Vc-R) to single-agent rituximab in subjects who have relapsed or refractory, rituximab-naive or -sensitive follicular B-cell NHL was performed.
Subjects were centrally randomized to Treatment Groups A (Vc-R) or B (rituximab) in a 1:1 ratio taking into account the following stratification factors: • Follicular Lymphoma International Prognostic Index (FLIPI) score (low [0 or 1 factor], intermediate [2 factors], high [≧3 factors]); • Prior rituximab therapy (yes, no); • Time since last dose of anti-lymphoma therapy (≦1 year, >1 year); • Region (United States/Canada, European Union, Rest of World).
The following clinical endpoints were included in the analysis within each treatment group and an overall comparison was made with the biomarker-related endpoints: Progression-free survival, defined as the interval between the date of randomization and the date of progressive disease (PD) or death, whichever is first reported in the ITT population; overall survival; overall response rate (complete response [CR]+CR unconfirmed [CRu]+partial response [PR]); overall CR rate (CR+CRu); duration of response; time to next anti-lymphoma therapy; and treatment free interval.

[1] = PSMB5/L206M: C/C, High Tumor Burden
[2] = PSMB5/L206M: C/C, ≦65 years old
[3] = PSMB5/R24C: C/C, >1 year since last anti-lymphoma treatment
[4] = PSMB5/R24C: C/T, Ann Arbor Stage IV
[5] = PSMB5/R24C: C/T, High Tumor Burden
[6] = PSMB6/A234D: C/C, >1 year since last anti-lymphoma treatment
[7] = PSMB6/A234D: C/C, Ann Arbor Stage IV
[8] = PSMB6/A234D: C/C, European Union
[9] = PSMB6/A234D: C/C, High Tumor Burden
[10] = PSMB6/A234D: C/C, ≦65 years old
[11] = PSMB6/P107A: C/C, >1 year since last anti-lymphoma treatment
[12] = PSMB6/P107A: C/C, Ann Arbor Stage IV
[13] = PSMB6/P107A: C/C, High Tumor Burden
[14] = PSMB6/P107A: C/C, ≦65 years old
[15] = PSMB8/G8R: G/G, >1 year since last anti-lymphoma treatment
[16] = PSMB8/G8R: G/G, Ann Arbor Stage IV
[17] = PSMB8/G8R: G/G, High Tumor Burden
[18] = PSMB8/R141C: C/C, >1 year since last anti-lymphoma treatment
[19] = PSMB8/R141C: C/C, Ann Arbor Stage IV
[20] = PSMB8/R141C: C/C, European Union
[21] = PSMB8/R141C: C/C, High Tumor Burden
[22] = PSMB8/R141C: C/C, ≦65 years old
[23] = PSMB8/V182M: G/G, >1 year since last anti-lymphoma treatment
[24] = PSMB8/V182M: G/G, Ann Arbor Stage IV
[25] = PSMB8/V182M: G/G, European Union
[26] = PSMB8/V182M: G/G, High Tumor Burden
[27] = PSMB8/V182M: G/G, ≦65 years old
[28] = PSMB9/G9E: G/G, >1 year since last anti-lymphoma treatment
[29] = PSMB9/G9E: G/G, Ann Arbor Stage IV
[30] = PSMB9/G9E: G/G, High Tumor Burden
[31] = PSMB9/V32I: C/C, 5 Prior Lines of Therapy
[32] = PSMB9/V32I: C/C, >1 year since last anti-lymphoma treatment
[33] = PSMB9/V32I: C/C, Ann Arbor Stage IV
[34] = PSMB9/V32I: C/C, High Tumor Burden

rituximab
Time to Next Anti-Lymphoma Therapy, Median (PSMB5/L206M: C/C, European Union): 675
Time to Next Anti-Lymphoma Therapy, Evt/N [1]: 108/147
Time to Next Anti-Lymphoma Therapy, Median [1]: 396
Time to Next Anti-Lymphoma Therapy, Evt/N (PSMB5/L206M: C/C, No Subgroup): 173/276
Time to Next Anti-Lymphoma Therapy, Median (PSMB5/L206M: C/C, No Subgroup): 546
Time to Next Anti-Lymphoma Therapy, Evt/N [2]: 130/198
Time to Next Anti-Lymphoma Therapy, Median [2]: 489
Time to Next Anti-Lymphoma Therapy, Evt/N [3]: 81/137
Time to Next Anti-Lymphoma Therapy, Median [3]: 649
Time to Next Anti-Lymphoma Therapy, Evt/N (PSMB5/R24C: C/C, No Subgroup): 147/235
Time to Next Anti-Lymphoma Therapy, Median (PSMB5/R24C: C/C, No Subgroup): 546
Time to Next Anti-Lymphoma Therapy, Evt/N (PSMB5/R24C: C/C, ≦65 years old): 113/170
Time to Next Anti-Lymphoma Therapy, Median (PSMB5/R24C: C/C, ≦65 years old): 489
Time to Next Anti-Lymphoma Therapy, Evt/N [4]: 11/15
Time to Next Anti-Lymphoma Therapy, Median [4]: 421
Time to Next Anti-Lymphoma Therapy, Evt/N [5]: 19/21
Time to Next Anti-Lymphoma Therapy, Median [5]: 317
Time to Next Anti-Lymphoma Therapy, Evt/N [6]: 98/165
Time to Next Anti-Lymphoma Therapy, Median [6]: 688
Time to Next Anti-Lymphoma Therapy, Evt/N [7]: 86/127
Time to Next Anti-Lymphoma Therapy, Median [7]: 457
Time to Next Anti-Lymphoma Therapy, Evt/N [8]: 75/119
Time to Next Anti-Lymphoma Therapy, Median [8]: 675
Time to Next Anti-Lymphoma Therapy, Evt/N [9]: 108/147
Time to Next Anti-Lymphoma Therapy, Median [9]: 396
Time to Next Anti-Lymphoma Therapy, Evt/N (PSMB6/A234D: C/C, No Subgroup): 173/276
Time to Next Anti-Lymphoma Therapy, Median (PSMB6/A234D: C/C, No Subgroup): 546
Time to Next Anti-Lymphoma Therapy, Evt/N [10]: 130/198
Time to Next Anti-Lymphoma Therapy, Median [10]: 489
Time to Next Anti-Lymphoma Therapy, Evt/N [11]: 95/159
Time to Next Anti-Lymphoma Therapy, Median [11]: 702
Time to Next Anti-Lymphoma Therapy, Evt/N [12]: 84/124
Time to Next Anti-Lymphoma Therapy, Median [12]: 485
Time to Next Anti-Lymphoma Therapy, Evt/N [13]: 104/140
Time to Next Anti-Lymphoma Therapy, Median [13]: 380
Time to Next Anti-Lymphoma Therapy, Evt/N (PSMB6/P107A: C/C, No Subgroup): 167/265
Time to Next Anti-Lymphoma Therapy, Median (PSMB6/P107A: C/C, No Subgroup): 550
Time to Next Anti-Lymphoma Therapy, Evt/N [14]: 125/189
Time to Next Anti-Lymphoma Therapy, Median [14]: 504
Time to Next Anti-Lymphoma Therapy, Evt/N [15]: 91/155
Time to Next Anti-Lymphoma Therapy, Median [15]: 702
Time to Next Anti-Lymphoma Therapy, Evt/N [16]: 80/120
Time to Next Anti-Lymphoma Therapy, Median [16]: 457
Time to Next Anti-Lymphoma Therapy, Evt/N (PSMB8/G8R: G/G, European Union): 70/111
Time to Next Anti-Lymphoma Therapy, Median (PSMB8/G8R: G/G, European Union): 649
Time to Next Anti-Lymphoma Therapy, Evt/N (PSMB8/G8R: G/G, Female): 94/160
Time to Next Anti-Lymphoma Therapy, Median (PSMB8/G8R: G/G, Female): 649
Time to Next Anti-Lymphoma Therapy, Evt/N [17]: 104/140
Time to Next Anti-Lymphoma Therapy, Median [17]: 374
Time to Next Anti-Lymphoma Therapy, Evt/N (PSMB8/G8R: G/G, No Subgroup): 165/264
Time to Next Anti-Lymphoma Therapy, Median (PSMB8/G8R: G/G, No Subgroup): 537
Time to Next Anti-Lymphoma Therapy, Evt/N (PSMB8/G8R: G/G, ≦65 years old): 123/189
Time to Next Anti-Lymphoma Therapy, Median (PSMB8/G8R: G/G, ≦65 years old): 504
Time to Next Anti-Lymphoma Therapy, Evt/N [18]: 98/165
Time to Next Anti-Lymphoma Therapy, Median [18]: 688
Time to Next Anti-Lymphoma Therapy, Evt/N [19]: 86/127
Time to Next Anti-Lymphoma Therapy, Median [19]: 457
Time to Next Anti-Lymphoma Therapy, Evt/N [20]: 75/119
Time to Next Anti-Lymphoma Therapy, Median [20]: 675
Time to Next Anti-Lymphoma Therapy, Evt/N [21]: 108/147
Time to Next Anti-Lymphoma Therapy, Median [21]: 396
Time to Next Anti-Lymphoma Therapy, Evt/N (PSMB8/R141C: C/C, No Subgroup): 173/276
Time to Next Anti-Lymphoma Therapy, Median (PSMB8/R141C: C/C, No Subgroup): 546
Time to Next Anti-Lymphoma Therapy, Evt/N [22]: 130/198
Time to Next Anti-Lymphoma Therapy, Median [22]: 489
Time to Next Anti-Lymphoma Therapy, Evt/N [23]: 98/165
Time to Next Anti-Lymphoma Therapy, Median [23]: 688
Time to Next Anti-Lymphoma Therapy, Evt/N [24]: 86/127
Time to Next Anti-Lymphoma Therapy, Median [24]: 457
Time to Next Anti-Lymphoma Therapy, Evt/N [25]: 75/119
Time to Next Anti-Lymphoma Therapy, Median [25]: 675
Time to Next Anti-Lymphoma Therapy, Evt/N [26]: 108/147
Time to Next Anti-Lymphoma Therapy, Median [26]: 396
Time to Next Anti-Lymphoma Therapy, Evt/N (PSMB8/V182M: G/G, No Subgroup): 173/276
Time to Next Anti-Lymphoma Therapy, Median (PSMB8/V182M: G/G, No Subgroup): 546
Time to Next Anti-Lymphoma Therapy, Evt/N [27]: 130/198
Time to Next Anti-Lymphoma Therapy, Median [27]: 489
Time to Next Anti-Lymphoma Therapy, Evt/N [28]: 97/163
Time to Next Anti-Lymphoma Therapy, Median [28]: 688
Time to Next Anti-Lymphoma Therapy, Evt/N [29]: 86/126
Time to Next Anti-Lymphoma Therapy, Median [29]: 457
Time to Next Anti-Lymphoma Therapy, Evt/N (PSMB9/G9E: G/G, European Union): 75/119
Time to Next Anti-Lymphoma Therapy, Median (PSMB9/G9E: G/G, European Union): 675
Time to Next Anti-Lymphoma Therapy, Evt/N [30]: 107/145
Time to Next Anti-Lymphoma Therapy, Median [30]: 396
Time to Next Anti-Lymphoma Therapy, Evt/N (PSMB9/G9E: G/G, No Subgroup): 172/274
Time to Next Anti-Lymphoma Therapy, Median (PSMB9/G9E: G/G, No Subgroup): 546
Time to Next Anti-Lymphoma Therapy, Evt/N (PSMB9/G9E: G/G, ≦65 years old): 129/196
Time to Next Anti-Lymphoma Therapy, Median (PSMB9/G9E: G/G, ≦65 years old): 489
Time to Next Anti-Lymphoma Therapy, Evt/N (PSMB9/R60H: A/G, Male): 22/28
Time to Next Anti-Lymphoma Therapy, Median (PSMB9/R60H: A/G, Male): 380
Time to Next Anti-Lymphoma Therapy, Evt/N [31]: 7/8
Time to Next Anti-Lymphoma Therapy, Median [31]: 228
Time to Next Anti-Lymphoma Therapy, Evt/N [32]: 96/160
Time to Next Anti-Lymphoma Therapy, Median [32]: 649
Time to Next Anti-Lymphoma Therapy, Evt/N [33]: 84/123
Time to Next Anti-Lymphoma Therapy, Median [33]: 457
Time to Next Anti-Lymphoma Therapy, Evt/N [34]: 106/142
Time to Next Anti-Lymphoma Therapy, Median [34]: 396
Time to Next Anti-Lymphoma Therapy, Evt/N (PSMB9/V32I: C/C, ≦65 years old): 127/192
Time to Next Anti-Lymphoma Therapy, Median (PSMB9/V32I: C/C, ≦65 years old): 489
